Results taken from patent US20220275341A1, “ORGANOID MESODERM LINEAGE DIVERSIFICATION” (CHILDREN'S HOSPITAL MEDICAL CENTER, priority 2019, published 2022).

Test system: hPSC-derived primitive splanchnic mesoderm (SM)
Test: Treatment of hPSC-derived primitive SM from d4-d7 with HH, RA, Wnt and BMP agonists or antagonists; RT-PCR, immunostaining, RNA-scope
Format: cell-based, human
Description: For RNAscope on mouse tissue, fixed embryos were immersed in 30% sucrose/PBS overnight, embedded in OCT, cryosectioned (12 μm) onto Superfrost Plus slides (Thermo Fisher) and stored at −80° C. overnight. For RNAscope of adherent hPSC culture, cells were differentiated on Geltrex-coated u-Slide 8 well (ibid) and fixed in 4% PFA at room temperature for 30 min, Cells were dehydrated with ethanol gradient and stored in 100% ethanol at −20° C. RNAscope fluorescent in situ hybridization was conducted with RNAscope Multiplex Fluorescent Detection Reagents V2 (Advanced Cell Diagnostics, Inc.) and Opal fluorophore (Akoya Biosciences) according to manufacturer's instructions.
Differentiation of hPSCs into lateral plate mesoderm was induced using previously described methods with modifications. In brief, partially confluent hPSCs were dissociated into very fine clumps in Accutase (Invitrogen) and passaged 1:18 onto new Geltrex-coated 24-well plates for immunocytochemistry and 12-well plates for RNA preparation in mTeSR1 with 1 μM thiazovivin (Tocris) (Day 1). […]
Total RNA was prepared from differentiating human ES cells by using Nucleospin kit according to manufacturer's protocol. […] Significance was determined by one-way ANOVA, followed by Tukey's test. […]

SMILES: c1ccc2c(Oc3nc(Nc4ccc(N5CCOCC5)cc4)c4ncn(C5CCCCC5)c4n3)cccc2c1 [HH-agonist, purmorphamine]
- gut tube identity: promoted
- hepatic fate: efficiently blocked
